Experimental data: article PMC9571290, “Preliminary Structure–Activity Relationship Study of the MMV Pathogen Box Compound MMV675968 (2,4-Diaminoquinazoline) Unveils Novel Inhibitors of Trypanosoma brucei brucei” (Molecules, 2022)
Like-named read-outs stand apart in the source and are kept apart here.

Assays:
[1] = test system: kinetoplastids (T. brucei brucei and T. brucei rhodesiense); design: method as in MMV Pathogen Box supporting information; conditions: against kinetoplastids; ref MMV Pathogen Box supporting information; read-out: Reported IC50; cited from earlier work
[2] = test system: Vero cells; test: cytotoxicity against Vero cells (resazurin viability assay); conditions: read-out: CC50 Vero; Table 2
Description: (§1) The resulting pellet was resuspended and counted in a Neubauer chamber in the presence of trypan blue to exclude nonviable cells colored in blue. Once the cell load was estimated, they were either used for the next passage in a new flask or processed for the cytotoxicity assay.
(§2) Briefly, Vero cells at a density of 10^4 cells per well were plated in 100 µL of complete DMEM and incubated overnight to allow cell attachment. Plates were then controlled under an inverted fluorescence microscope (Lumascope LS520) to ensure adherence, sterility and cell integrity. Thereafter, culture medium from each well was carefully emptied, and plates were filled with 90 µL of fresh complete medium followed by the addition of 10 µL of serial 5-fold dilutions of compound solutions. […] Fluorescence was then read using a Magelan Infinite M200 fluorescence multiwell plate reader (Tecan) with excitation and emission wavelengths of 530 and 590 nm, respectively. The percentage of cell viability was calculated from readouts, and the median cytotoxic concentration (CC50) for each compound was deduced from concentration–response curves using GraphPad Prism 8.0 software as described above. Selectivity indexes were then determined for each test substance as follows: SI = CC50(Vero cells)/IC50(T. brucei brucei).

[3] = test system: bloodstream forms of Trypanosoma brucei brucei; test: resazurin-based antitrypanosomal inhibition assay; format: cell-based; conditions: for pIC50 T. b. b.: Table 2
Description: Parasites were axenically cultivated in sterile vented flasks containing complete Hirumi’s modified Iscove’s medium 9 (HMI-9) [500 mL IMDM (Iscove’s modified Dulbecco’s medium) (Gibco, Waltham, MA, USA) supplemented with 10% (v/v) heat-inactivated fetal bovine serum (HIFBS) (Sigma Aldrich), 10% (v/v) serum plus (Sigma Aldrich), HMI-9 supplement (1 mM hypoxanthine, 0.16 mM thymidine, 50 µM bathocuproine disulfonic acid, 1.5 mM cysteine, 1.25 Mm pyruvic acid, 0.2 mM 2-mercaptoethanol (Sigma Aldrich)), and 1% (v/v) penicillin–streptomycin (Sigma Aldrich) and incubated at 37 °C in a 5% CO2 atmosphere.
The in vitro inhibitory potency of the 400 MMVPB compounds against bloodstream forms of Trypanosoma brucei brucei was evaluated using the resazurin-based inhibition assay as previously described. Briefly, parasites at their mid-logarithmic growth phase were counted, and the cell density was adjusted with fresh complete HMI-9 medium to 2 × 10^5 trypanosomes per mL. Then, 90 µL of parasite suspension was then distributed into the wells of 96-well flat-bottomed plates containing 10 µL of compounds for a final test concentration of 10 µM. […] Each assay plate was set up in duplicate and repeated two times. The percent parasite inhibition was determined for each compound based on fluorescence readouts relative to the mean fluorescence of negative control wells.
y = 100/[1+ 10^(logIC50/99-x)H], where H is the hill coefficient or slope factor [60].

[4] = in vitro; conditions: African green monkey
Description: as §1, §2

[5] = Table 2, MMVPB compounds with known anti-kinetoplastid activity, read-out: IC50 ± SD T. b. b.
[6] = Trypanosoma brucei, Table 4, analogs of MMV675968, solid material, read-out: IC50 ± SD T. b. b.
[7] = Trypanosoma brucei, Table 4, negative log of IC50 in molar, read-out: pIC50 T. b. b. (converted)
[8] = Trypanosoma brucei, Table 1, reference drugs included in MMVPB, read-out: IC50 ± SD T. b. b.
[9] = Trypanosoma brucei, Table 1, negative log of IC50 in molar, read-out: pIC50 T. b. b. (converted)

| SMILES | IC50 [1] | CC50 [2] | IC50 [3, 5] | pIC50 T. b. b. ([3]; negative log of IC50 in molar) | CC50 at 48 h [4] | IC50 [3, 6] | other results |
| --- | --- | --- | --- | --- | --- | --- | --- |
| NCCN(C(=O)c1ccc(Cl)cc1Cl)c1ccc(OCc2ccc(Cl)cc2)cc1 [MMV688371] | < 130 nM | 7500 ± 100 nM | 1600 ± 100 nM | 5.79 |  |  |  |
| Cc1ncc(-c2ccnc(Nc3ccc(S(C)(=O)=O)cc3)n2)n1C(C)C [MMV676604] | 260 nM | 8300 ± 1200 nM | 36 ± 1 nM | 7.44 |  |  |  |
| COc1ccc(S(=O)(=O)Nc2ccc(CN3CCN(C(=O)c4cccc(C#N)c4)CC3)cc2)cc1 [MMV689029] | 500 nM | > 100000 nM | 1300 ± 600 nM | 5.88 |  |  |  |
| CS(=O)(=O)c1ccccc1C(=O)N(Cc1ccccc1)c1ccccc1 [MMV688798] | 555 nM |  | 300 ± 25 nM | 6.52 |  |  |  |
| Cc1nc(-c2ccccn2)nc(N2CCC(Cc3ccccc3)C2)c1Cl (centres unmarked) [MMV659004] | 6600 nM | > 100000 nM | 1900 ± 3 nM | 5.72 |  |  |  |
| COc1ccc(NC(=O)c2cnc(N)nc2N)cc1OC [Analog 24] |  |  |  |  | > 100000 nM | > 10000 nM |  |
| Cc1ccccc1NCc1ccc2nc(N)nc(N)c2c1Cl [Analog 5] |  |  |  |  | > 100000 nM | 2300 ± 200 nM | IC50 [3, 7]: 2290 nM |
| CNC(=O)C1Cc2ccccc2N1C(=O)Cc1ccc(F)cc1 (centres unmarked) [MMV188296] | 490 nM | > 100000 nM | 1010 ± 250 nM | 5.99 |  |  |  |
| COc1ccccc1NC(=O)c1ccc2nc(N)nc(N)c2c1 [Analog 13] |  |  |  |  | > 100000 nM | 3200 ± 300 nM | IC50 [3, 7]: 3240 nM |
| COc1ccc(NCc2ccc3nc(N)nc(N)c3c2Cl)cc1 [Analog 4] |  |  |  |  | 16900 ± 200 nM | 2500 ± 150 nM | IC50 [3, 7]: 2510 nM |
| CC1CS(=O)(=O)CCN1/N=C/c1ccc([N+](=O)[O-])o1 (centres unmarked) [MMV001499, Nifurtimox, reference compound] |  |  |  |  | > 100000 nM |  | IC50 [3, 8]: 200 ± 90 nM; IC50 [3, 9]: 200 nM |
| Cc1ccccc1NC(=O)c1ccc2nc(N)nc(N)c2c1 [Analog 15] |  |  |  |  | > 100000 nM | > 10000 nM |  |
| COc1ccccc1NCc1ccc2nc(N)nc(N)c2c1Cl [Analog 3] |  |  |  |  | 20400 ± 700 nM | 3200 ± 30 nM | IC50 [3, 7]: 3240 nM |
| Cc1ccc(S(=O)(=O)Nc2ccc(CN3CCN(C(=O)c4cccc(C#N)c4)CC3)cc2)cc1 [MMV689028] | 140 nM | > 100000 nM |  |  |  |  |  |
| CC(=O)Nc1ccc(-c2noc(CC3CCCN(Cc4cccc(F)c4C)C3)n2)cc1 (centres unmarked) [MMV689061] | 32300 nM | > 100000 nM | 1900 ± 100 nM | 5.72 |  |  |  |
| Cc1cccnc1NC(=O)c1cccc(OCc2c(C)noc2C)c1 [MMV688793] | 2070 nM | > 100000 nM | 360 ± 40 nM | 6.44 |  |  |  |
| COc1ccc(C(=N)N)cc1-c1cn(-c2ccc(C(=N)N)cc2)nn1 [MMV675998] | 250 nM | > 100000 nM | 340 ± 30 nM | 6.47 |  |  |  |
| O=C(Nc1ccc2c(c1)B(O)OC2)c1ccccc1C(F)(F)F [MMV652003] | 150 nM | > 100000 nM | 60 ± 40 nM | 7.22 |  |  |  |
| N=C(N)c1ccc(-c2cc(-c3ccccc3)on2)cc1 [MMV688514] | 4060 nM | 17000 ± 2500 nM | 3200 ± 300 nM | 5.49 |  |  |  |

| SMILES | IC50 [1] | CC50 [2] | IC50 [3, 5] | pIC50 T. b. b. ([3]; negative log of IC50 in molar) | CC50 at 48 h [4] | IC50 [3, 6] | other results |
| --- | --- | --- | --- | --- | --- | --- | --- |
| c1ccc(Oc2ccc(-c3cc(N4CCNCC4)[nH]n3)cc2)cc1 [MMV687706] | 990 nM | 41000 ± 6500 nM | 1900 ± 6 nM | 5.72 |  |  |  |
| COc1ccc(NCc2ccc3nc(N)nc(N)c3c2)cc1OC [Analog 6] |  |  |  |  | > 100000 nM | 560 ± 70 nM | IC50 [3, 7]: 562 nM |
| COc1ccc(NCc2cnc(N)nc2N)cc1 [Analog 17] |  |  |  |  | > 100000 nM | > 10000 nM |  |
| COc1ccccc1NC(=O)c1cnc(N)nc1N [Analog 21] |  |  |  |  | > 100000 nM | > 10000 nM |  |
| Cc1ccc(C(=O)Nc2ccc(S(=O)(=O)O)c3cc(S(=O)(=O)O)cc(S(=O)(=O)O)c23)cc1NC(=O)c1cccc(NC(=O)Nc2cccc(C(=O)Nc3cc(C(=O)Nc4ccc(S(=O)(=O)O)c5cc(S(=O)(=O)O)cc(S(=O)(=O)O)c45)ccc3C)c2)c1 [MMV637953, Suramine, reference compound] |  |  |  |  | > 100000 nM |  | IC50 [3, 8]: 80 ± 10 nM; IC50 [3, 9]: 81.3 nM |
| OC(c1cc(C(F)(F)F)nc2c(C(F)(F)F)cccc12)C1CCCCN1 (centres unmarked) [MMV000016, Mefloquine, reference compound] |  |  |  |  | 11300 nM |  | IC50 [3, 8]: 1600 ± 8 nM; IC50 [3, 9]: 1580 nM |
| CC1=Nc2ccc(Cl)cc2C(c2ccccc2)N1CCNC(=O)CN(C)C (centres unmarked) [MMV688410] | 3800 nM |  | 8500 ± 100 nM | 5.07 |  |  |  |
| CCN(CC)CCCCCCNc1cc(OC)cc2c(C)ccnc12 [MMV000063, Sitamaquine, reference compound] |  |  |  |  | > 100000 nM |  | IC50 [3, 8]: 1500 ± 30 nM; IC50 [3, 9]: 1580 nM |
| Cc1ccccc1NCc1ccc2nc(N)nc(N)c2c1 [Analog 9] |  |  |  |  | 22000 ± 1300 nM | 190 ± 3 nM | IC50 [3, 7]: 191 nM |
| Clc1ccc(CN2CCN(C3=NCCN3)CC2)cc1Cl [MMV689060] | 31600 nM |  | 2400 ± 60 nM | 5.61 |  |  |  |
| COc1cccc(CNCc2cnc(N)nc2N)c1 [Analog 18] |  |  |  |  | > 100000 nM | > 10000 nM |  |
| COc1cccc(CNC(=O)c2cnc(N)nc2N)c1 [Analog 19] |  |  |  |  | > 100000 nM | > 10000 nM |  |
| COc1cccc(CNC(=O)c2ccc3nc(N)nc(N)c3c2)c1 [Analog 14] |  |  |  |  | > 100000 nM | 2500 ± 130 nM | IC50 [3, 7]: 2510 nM |
| COc1ccc(NCc2ccc3nc(N)nc(N)c3c2Cl)cc1OC [Analog 2] |  |  |  |  | 18200 ± 3080 nM | 2400 ± 70 nM | IC50 [3, 7]: 2400 nM |
| Cc1ccccc1NC(=O)c1cnc(N)nc1N [Analog 23] |  |  |  |  | > 100000 nM | > 10000 nM |  |
| COc1ccc(NC(=O)c2ccc3nc(N)nc(N)c3c2)cc1 [Analog 11] |  |  |  |  | 22900 ± 500 nM | 4000 ± 1300 nM | IC50 [3, 7]: 3980 nM |
| COc1ccc(NC(=O)c2cnc(N)nc2N)cc1 [Analog 20] |  |  |  |  | > 100000 nM | > 10000 nM |  |
| O=C(Cn1ccnc1[N+](=O)[O-])NCc1ccccc1 [MMV688773, Benznidazole, reference compound] |  |  |  |  | > 100000 nM |  | IC50 [3, 8]: 300 ± 10 nM; IC50 [3, 9]: 302 nM |
